#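 Compound exposure: 48 hours, 5 concentrations, 96-well plates. Definition used: TGI = concentration required for complete inhibition of growth.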
# Experiments:
# Assay in all cases: NCI tumour cell line growth inhibition, 48 h
# [1] = tested on: MCF7 breast
# [2] = tested on: MALME-3M melanoma
# [3] = tested on: HCT-116 colon
# [4] = tested on: LOX IMVI melanoma
# [5] = tested on: OVCAR-4 ovarian
# [6] = tested on: SK-MEL-28 melanoma
# [7] = tested on: CAKI-1 renal
# [8] = tested on: IGROV1 ovarian
# [9] = tested on: BT-549 breast
# [10] = tested on: NCI-H226 lung
# [11] = tested on: SK-OV-3 ovarian
# [12] = tested on: OVCAR-3 ovarian
# [13] = tested on: HCT-15 colon
# [14] = tested on: HOP-62 NSCLC
# [15] = tested on: UO-31 renal
# [16] = tested on: SN12C renal
# [17] = tested on: CCRF-CEM leukemia
# [18] = tested on: NCI/ADR-RES ovarian
# [19] = tested on: SF-295 CNS
# [20] = tested on: SNB-19 CNS
# [21] = tested on: M14 melanoma
# [22] = tested on: UACC-257 melanoma
# [23] = tested on: A549 NSCLC
# [24] = tested on: MDA-N
# [25] = tested on: UACC-62 melanoma
# [26] = tested on: COLO 205 colon
# [27] = tested on: MDA-MB-231 breast
# [28] = tested on: TK-10 renal
# [29] = tested on: RXF 393 renal
# [30] = tested on: DU-145 prostate
# [31] = tested on: HL-60(TB) leukemia
# [32] = tested on: MOLT-4 leukemia
# [33] = tested on: A498 renal
# [34] = tested on: PC-3 prostate
# [35] = tested on: K-562 leukemia
# [36] = tested on: NCI-H23 lung
# [37] = tested on: SF-268 CNS
# [38] = tested on: KM12 colon
# [39] = tested on: 786-0 renal
# [40] = tested on: SF-539 CNS
# [41] = tested on: T-47D breast
# [42] = tested on: EKVX NSCLC
# [43] = tested on: NCI-H522 lung
# [44] = tested on: HS 578T breast
# [45] = tested on: ACHN renal
# [46] = tested on: HOP-92 NSCLC
# [47] = tested on: SW-620 colon
# [48] = tested on: SK-MEL-2 melanoma
# [49] = tested on: HT29 colon
# [50] = tested on: U251 CNS
# [51] = tested on: SR leukemia
# [52] = tested on: NCI-H460 lung
# [53] = tested on: RPMI-8226 leukemia
# [54] = tested on: MDA-MB-435
# [55] = tested on: SK-MEL-5 melanoma
# [56] = tested on: OVCAR-8 ovarian
# [57] = tested on: HCC-2998 colon
# [58] = tested on: SNB-75 CNS
# [59] = tested on: OVCAR-5 ovarian
smiles,measurement,setting,value
COc1ccc(/C=C2\C[C@H]3[C@@H]4CC=C5C[C@@H](O)CC[C@]5(C)[C@H]4CC[C@]3(C)\C2=N\O)cc1,TGI,[1],> 100 µM
same,TGI,[2],76.6 µM
same,TGI,[3],29.3 µM
same,TGI,[4],33.3 µM
same,TGI,[5],> 100 µM
same,TGI,[6],72.8 µM
same,TGI,[7],19.3 µM
same,TGI,[8],96.2 µM
same,TGI,[9],36.5 µM
same,TGI,[10],94.1 µM
same,TGI,[11],> 100 µM
same,TGI,[12],29.7 µM
same,TGI,[13],> 100 µM
same,TGI,[14],> 100 µM
same,TGI,[15],71.6 µM
same,TGI,[16],44.4 µM
same,TGI,[17],> 100 µM
same,TGI,[18],> 100 µM
same,TGI,[19],34.8 µM
same,TGI,[20],> 100 µM
same,TGI,[21],40.3 µM
same,TGI,[22],45.7 µM
same,TGI,[23],> 100 µM
same,TGI,[24],> 100 µM
same,TGI,[25],50.3 µM
same,TGI,[26],29 µM
same,TGI,[27],> 100 µM
same,TGI,[28],> 100 µM
same,TGI,[29],> 100 µM
same,TGI,[30],71.5 µM
same,TGI,[31],24.8 µM
same,TGI,[32],34.3 µM
same,TGI,[33],71.7 µM
same,TGI,[34],> 100 µM
same,TGI,[35],45.9 µM
same,TGI,[36],> 100 µM
same,TGI,[37],46.2 µM
same,TGI,[38],> 100 µM
same,TGI,[39],44.3 µM
same,TGI,[40],> 100 µM
same,TGI,[41],4.68 µM
same,TGI,[42],8.78 µM
same,TGI,[43],50 µM
same,TGI,[44],37.5 µM
same,TGI,[45],> 100 µM
same,TGI,[46],> 100 µM
same,TGI,[47],> 100 µM
same,TGI,[48],39.8 µM
same,TGI,[49],> 100 µM
same,TGI,[50],> 100 µM
same,TGI,[51],19 µM
same,TGI,[52],> 100 µM
same,TGI,[53],21.9 µM
same,TGI,[54],> 100 µM
same,TGI,[55],23.3 µM
O=C(Nc1ccc(Cl)cc1Cl)C1C(=O)OC2(CCCCC2)OC1=O,TGI,[1],29.6 µM
same,TGI,[3],23.3 µM
same,TGI,[4],20.4 µM
same,TGI,[5],> 100 µM
same,TGI,[6],23.5 µM
same,TGI,[7],22.5 µM
same,TGI,[8],64.1 µM
same,TGI,[9],26.7 µM
same,TGI,[10],29.3 µM
same,TGI,[56],39.6 µM
same,TGI,[11],32.2 µM
same,TGI,[12],16.1 µM
same,TGI,[13],29.4 µM
same,TGI,[14],17.3 µM
same,TGI,[15],15.1 µM
same,TGI,[16],49.4 µM
same,TGI,[17],33.2 µM
same,TGI,[18],26.4 µM
same,TGI,[19],19.4 µM
same,TGI,[20],> 100 µM
same,TGI,[21],30.1 µM
same,TGI,[22],30.1 µM
same,TGI,[23],28.8 µM
same,TGI,[24],61.2 µM
same,TGI,[25],24.4 µM
same,TGI,[26],26.7 µM
same,TGI,[27],33 µM
same,TGI,[28],> 100 µM
same,TGI,[29],22 µM
same,TGI,[30],28.7 µM
same,TGI,[31],29.9 µM
same,TGI,[32],26.9 µM
same,TGI,[33],31.5 µM
same,TGI,[34],17.4 µM
same,TGI,[35],43.1 µM
same,TGI,[36],19.1 µM
same,TGI,[37],50.5 µM
same,TGI,[38],28.4 µM
same,TGI,[39],30.3 µM
same,TGI,[40],23.6 µM
same,TGI,[57],29.3 µM
same,TGI,[41],62.2 µM
same,TGI,[42],32.3 µM
same,TGI,[58],29.2 µM
same,TGI,[43],52.5 µM
same,TGI,[44],64.9 µM
same,TGI,[45],33.9 µM
same,TGI,[59],28 µM
same,TGI,[46],28.1 µM
same,TGI,[47],25.3 µM
same,TGI,[48],12.6 µM
same,TGI,[49],25 µM
same,TGI,[50],54.1 µM
same,TGI,[51],64.1 µM
same,TGI,[52],27.4 µM
same,TGI,[53],35.7 µM
same,TGI,[54],56 µM
same,TGI,[55],22.1 µM
